Key:
[1] = test system: platelets (platelet rich plasma); assay: Inhibition of platelet aggregation, collagen as agonist; type: cell-based; settings: human PRP; for inhibition at 50 µM: compound 50 μM; for inhibition at 30 µM: compound 30 μM; for inhibition at 100 µM: compound 100 μM
Procedure: (§1) Platelet rich plasma (PRP) was obtained by drawing whole blood from normal human donors (not on any medication) into sodium citrate tubes (3.2%), and centrifuging at 160×g for about 10 minutes. Platelet poor plasma (PPP) was obtained by centrifuging the remainder of the sample after the platelets were removed at 800×g for about 10 minutes. The PRP was adjusted to a count of 280×10^9/L using a mixture of PRP and PPP. The platelets (200 μL) were incubated with the test compounds (25 μL) adjusted to various concentrations (5, 10, 20, 30, 50, and 100 μM) for about 30 minutes at room temperature (approximate final platelet count in the incubation mixture of 250×10^9/L). The samples were incubated for about 3 minutes at about 37° C., and then transferred to the mixing wells of a Chrono-log 4 channel aggregometer (Chrono-log Corp., Havertown, Pa.). After baselines were established, agonist (25 μL of 40 μM ADP (Sigma, St. Louis, Mo.) or 25 μL of 50 μg/mL and 10 μg/mL collagen (Helena Laboratories, Beaumont, Tex.) or 25 μL of 120 μM thrombin receptor activating peptide (TRAP) (Sigma)) was then added. Aggregation was monitored for 5 minutes at 37° C. with stirring (1000 rpm). The amplitude and slope of each tracing were calculated to determine the amount of aggregation. Control samples were performed using only solvent. The % reduction in aggregation was calculated for each sample compared to the proper solvent control.

[2] = test system: platelets (platelet rich plasma); assay: Inhibition of platelet aggregation, ADP as agonist; type: cell-based; settings: ADP 4 μM, human PRP, read-out: % Reduction in Aggregation ADP (4 μM); for inhibition at 30 µM: compound 30 μM
Procedure: as §1

[3] = test system: platelets (platelet rich plasma); assay: Inhibition of platelet aggregation, thrombin receptor activating peptide (TRAP) as agonist; type: cell-based; settings: TRAP 12 μM, human PRP, read-out: % Reduction in Aggregation TRAP (12 μM); for inhibition at 30 µM: compound 30 μM
Procedure: as §1

[4] = target: T1, Human Thrombin (Homo sapiens, UniProt P00734); assay: Determination of Anti-Thrombin (Factor IIa) Activity; type: biochemical; settings: competitive inhibition; substrate Pefachrome Thr; pH 8.3
T1 construct: Determination of Anti-Thrombin (Factor IIa) Activity; purchased Calbiochem
Procedure: The test compounds (40 μL) adjusted to various concentrations (0.25 to 100 μM) were incubated with Human Thrombin (Calbiochem) enzyme (5 nM) in 31 mM Tris buffer (pH 8.3) containing 81 mM sodium chloride and 0.63% bovine serum albumin (fraction V)(80 μL) at room temperature for about 30 minutes. 80 μL of Pefachrome® Thr (Pentapharm) was adjusted to various concentrations, from 62.5 μM to 1.25 mM. The activity was measured at about 37° C. by monitoring absorbance at 405 nm for about 15 minutes using a FLUOstar OPTIMA™. Control sample was the solvent alone. Each test compound was analyzed twice using 4 concentrations of compound plus control (in duplicate) with 5 concentrations of substrate (50, 100, 200, 300 and 500 μM). The specific activity (ΔA405/min/nM enzyme) was determined for each data point. The Ki for competitive inhibition was then determined for each test compound using the Enzyme Kinetics module of Sigmaplot 8.0 (SPSS).

[5] = target: T2, Human FXa (Homo sapiens, UniProt P00742); assay: Determination of Anti-Factor Xa (Fxa) Activity; type: biochemical; settings: competitive inhibition; substrate Pefachrome Xa; pH 7.5
T2 construct: Determination of Anti-Factor Xa (Fxa) Activity; purchased Calbiochem
Procedure: The test compounds (40 μL) adjusted to various concentrations (0.25 to 100 μM) were incubated with 5 nM Human FXa (Calbiochem, San Diego, Calif.) enzyme in 125 mM Tris [Tris(hydroxymethyl)aminomethane] buffer (pH 7.5) containing 375 mM sodium chloride and 0.25% polyethylene glycol (MW 8000) (80 μL) at room temperature for about 30 minutes. 80 μL of synthetic substrate Pefachrome® Xa (Pentapharm, Basel, Switzerland), adjusted to various concentrations from 125 μM to 1.25 mM, was added. The activity was measured at 37° C. by monitoring absorbance at 405 nm for 15 minutes using a FLUOstar OPTIMA™ (BMG Labtech GmbH, Offenburg, Germany) microplate reader. Control sample was the solvent alone. Each test compound was analyzed twice using 4 concentrations of compound plus control (in duplicate) with 5 concentrations of substrate (50, 100, 200, 300 and 500 μM). The specific activity (ΔA405/min/nM enzyme) was determined for each data point. The Ki for competitive inhibition was then determined for each test compound using the Enzyme Kinetics module of Sigmaplot 8.0 (SPSS Inc., Chicago, Ill.).

[6] = collagen 1 μg/mL, read-out: % Reduction in Aggregation Collagen (1 μg/mL)
[7] = collagen 5 μg/mL, read-out: % Reduction in Aggregation Collagen (5 μg/mL)

T2 sequence (P00742 235-488 limits assumed): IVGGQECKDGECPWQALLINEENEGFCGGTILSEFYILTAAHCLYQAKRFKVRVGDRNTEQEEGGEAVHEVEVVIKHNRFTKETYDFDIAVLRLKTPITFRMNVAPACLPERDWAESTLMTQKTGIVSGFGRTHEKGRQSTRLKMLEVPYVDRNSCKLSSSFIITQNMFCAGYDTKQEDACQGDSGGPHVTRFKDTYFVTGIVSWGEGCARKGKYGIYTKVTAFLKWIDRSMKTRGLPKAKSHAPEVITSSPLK
T2 sequence (P00742 41-179 partner limits assumed): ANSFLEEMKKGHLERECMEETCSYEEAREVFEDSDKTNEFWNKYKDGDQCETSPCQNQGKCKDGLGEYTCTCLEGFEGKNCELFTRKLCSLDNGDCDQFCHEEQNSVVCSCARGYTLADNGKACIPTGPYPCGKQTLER

Row | Compound | Ki [4] | Ki [5] | further results
1 | Cc1ncc(CO)c(CNc2ccc(C(=N)N)cc2)c1OCc1ccc(C(=N)N)cc1 [Compound 3, 4-{[3-(4-Carbamimidoyl-benzyloxy)-5-hydroxymethyl-2-methyl-pyridin-4-ylmethyl]-amino}-benzamidine] |  |  | inhibition at 50 µM [1, 6]: 20%; inhibition at 50 µM [1, 7]: 0%; inhibition at 50 µM ([2]; compound 50 μM): 27%; inhibition at 50 µM ([3]; compound 50 μM): 81%
2 | Cc1ncc(CNc2ccc(-c3ccc(C(=N)N)cc3)cc2)c(CO)c1OCc1ccc(C(=N)N)cc1 [Compound 6, 4′-{[5-(4-Carbamimidoyl-benzyloxy)-4-hydroxymethyl-6-methyl-pyridin-3-ylmethyl]-amino}-biphenyl-4-carboxamidine] | 10300 nM | 2300 nM | inhibition at 30 µM [1, 6]: 100%; inhibition at 30 µM [1, 7]: 44%; inhibition at 30 µM [2]: 89%; inhibition at 30 µM [3]: 86%
3 | Cc1ncc(COc2ccc(C(=N)N)cc2)c(CO)c1OCc1ccc(C(=N)N)cc1 [Compound 15, 4-(5-(4-Carbamimidoyl-benzyloxy)-4-hydroxymethyl-6-methyl-pyridin-3-ylmethoxy)-benzamidine] | 1650 nM | 11000 nM | 
4 | Cc1ncc(COc2ccc(C(=N)N)cc2)c(C(F)F)c1OCc1ccc(C(=N)N)cc1 [Compound 21, 4-[4,4-Difluoromethyl-6-methyl-5-(4-carbamimidoyl-benzyloxy)-pyridin-3-ylmethoxy]-benzamidine] | 510 nM | 19000 nM | 
5 | Cc1ncc(CNc2ccc(-c3ccc(C(=N)N)cc3)cc2)c(CNCCCCCC(=O)O)c1O [Compound 46, 6-({5-[(4′-Carbamimidoyl-biphenyl-4-ylamino)-methyl]-3-hydroxy-2-methyl-pyridin-4-ylmethyl}-amino)-hexanoic acid] |  |  | inhibition at 100 µM [1, 6]: 35%; inhibition at 100 µM [1, 7]: 19%; inhibition at 100 µM ([2]; compound 100 μM): 46%; inhibition at 100 µM ([3]; compound 100 μM): 29%
6 | Cc1ncc(CNc2ccc(C(=N)N)cc2)c(CNCCCCCC(=O)O)c1OCc1ccc(C(=N)N)cc1 [Compound 54, 6-({3-(4-Carbamimidoyl-benzyloxy)-5-[(4-carbamimidoyl-phenylamino)-methyl]-2-methyl-pyridin-4-ylmethyl}-amino)-hexanoic acid] |  |  | inhibition at 30 µM [1, 6]: 15%; inhibition at 30 µM [1, 7]: 13%; inhibition at 30 µM [2]: 23%; inhibition at 30 µM [3]: 53%
7 | Cc1ncc(CNc2ccc(-c3ccc(C(=N)N)cc3)cc2F)c(CO)c1OCc1ccc(C(=N)N)cc1 [Compound 63, 4′-{[5-(4-Carbamimidoyl-benzyloxy)-4-hydroxymethyl-6-methyl-pyridin-3-ylmethyl]-amino}-3′-fluoro-biphenyl-4-carboxamidine] |  |  | inhibition at 30 µM [1, 6]: 95%; inhibition at 30 µM [1, 7]: 41%; inhibition at 30 µM [2]: 95%; inhibition at 30 µM [3]: 94%
8 | Cc1ncc(COc2ccc(C(=N)N)cc2)c(C)c1OCc1cccc(C(=N)N)c1 [Compound 70, 4-[4,6-Dimethyl-5-(3-carbamimidoyl-benzyloxyl)-pyridin-3-ylmethoxy]-benzamidine] | 700 nM | 9000 nM | 
9 | Cc1ncc(CNC(=O)c2ccc(C(=N)N)cc2)c(CO)c1OCc1ccc(C(=N)N)cc1 [Compound 73, 4-Carbamimidoyl-N-[5-(4-carbamimidoyl-benzyloxy)-4-hydroxymethyl-6-methyl-pyridin-3-ylmethyl]-benzamide] | 720 nM | 3500 nM | 
10 | CCc1c(CNc2ccc(C(=N)N)cc2)cnc(C)c1OCc1cccc(C(=N)N)c1 [Compound 103, 3-{5-[(4-Amidino-phenylamino)-methyl]-4-ethyl-2-methyl-pyridin-3-yloxymethyl}-benzamidine] | 47 nM | 961 nM | 
11 | Cc1c(CNc2ccc(C(=N)N)cc2)cnc(C=O)c1OCc1cccc(C(=N)N)c1 [Compound 142, 4-{[5-(3-Amidine-benzyloxy)-6-formyl-4-methyl-pyridin-3-ylmethyl]-amino}-benzamidine] | 186 nM | 589 nM | 
12 | N=C(N)c1ccc(COc2c(CF)ncc(CNc3ccc(C(=N)N)cc3)c2CF)cc1 [Compound 153, 4-{5-[(4-Carbamimidoyl-phenylamino)-methyl]-2,4-bis-fluoromethyl-pyridin-3-yloxymethyl}-benzamidine] | 12 nM | 665 nM | 
13 | Cc1nc(C2CC2)c(CNc2ccc(C(=N)N)cc2)c(CO)c1OCc1ccc(C(=N)N)cc1 [Compound 174, 4-{5-[(4-Carbamimidoyl-phenylamino)-methyl]-6-cyclopropyl-4-hydroxymethyl-2-methyl-pyridin-3-yloxymethyl}-benzamidine] | 37 nM | 1080 nM | 

The next lines start with results.

Row | Ki [4] | Ki [5] | Compound | further results
14 |  | 378 nM | Cc1ncc(CNc2ccc(C(=N)N)cc2)c(CF)c1OCc1cccc(C(=N)N)c1 [Compound 108, 4-{[4-Fluoromethyl-5-(3-amidine-benzyloxy)-6-methyl-pyridin-3-ylmethyl]-amino}-benzamidine] | 
15 | 333 nM | 503 nM | Cc1ncc(CNc2ccc(C(=N)N)cc2)cc1OCc1cccc(C(=N)N)c1 [Compound 136, 4-((5-(3-amidinebenzyloxy)-6-methylpyridin-3-yl)methylamino)benzamidine] | 
16 | 39 nM | 412 nM | Cc1c(CNc2ccc(C(=N)N)cc2)cnc(CO)c1OCc1cccc(C(=N)N)c1 [Compound 138, 4-{[5-(3-Amidine-benzyloxy)-6-hydroxymethyl-4-methyl-pyridin-3-ylmethyl]-amino}-benzamidine] | 
17 | 17 nM | 423 nM | Cc1c(CNc2ccc(C(=N)N)cc2)cnc(CF)c1OCc1cccc(C(=N)N)c1 [Compound 140, 4-{[5-(3-Amidine-benzyloxy)-6-fluoro-methyl-4-methyl-pyridin-3-ylmethyl]-amino}-benzamidine] | 
18 | 9 nM | 473 nM | N=C(N)c1ccc(NCc2cnc(CF)c(OCc3cccc(C(=N)N)c3)c2CF)cc1 [Compound 148, 4-{[4,6-Bis-fluoromethyl-5-(3-amidine-benzyloxy)-pyridin-3-ylmethyl]-amino}-benzamidine] | 
19 | 41 nM | 380 nM | Cc1nc(C2CC2)c(CNc2ccc(C(=N)N)cc2)c(CO)c1OCc1cccc(C(=N)N)c1 [Compound 172, 3-{5-[(4-Carbamimidoyl-phenylamino)-methyl]-6-cyclopropyl-4-hydroxymethyl-2-methyl-pyridin-3-yloxymethyl}-benzamidine] | 

Reference: US7812037B2, “Dual antiplatelet/anticoagulant pyridoxine analogs” (Medicure International, Inc., priority 2004, dated 2010)
